According to patent US12178902B1, “Methods and compositions for fluid drainage by Piezo ion channel activation” (UNIVERSITY OF SOUTHERN CALIFORNIA, priority 2020, dated 2024):
“Also recorded” adds a separate entry of the source.

Assays:
Piezo1 = molecular target: T1, Piezo1 (Mus musculus, UniProt E2JF22); assay: Lymphatic valve formation in Prox1-EGFP mice after perinatal Yoda1 administration; assay type: in vivo; conditions: Yoda1 70 μg/kg intraperitoneal at E18.5 and P0, evaluated at P1, mesenteries of the jejunum and the colon, tail skin
T1 construct: from tissue; host or cells: Prox1-EGFP mice (pregnant females at E18.5 and pups at P0); lymphatic vessels of mesentery (jejunum, colon) and tail skin
Excerpt: All mouse works have been approved by the Institutional Animal Care and Use Committee, University of Southern California (PI: YK Hong). Sources of the mice are: Prox1-EGFP (Tg(Prox1-EGFP)KY221Gsat, Mutant Mouse Resource and Research Centers) (35), Prox1-tdTomato (Tg(Prox1-tdTomato)TA76Gsat/Mmucd, Mutant Mouse Resource and Research Centers) (28), Prox1-CreER^T2 (a kind gift from Dr. Taija Makinen, Uppsala University, Sweden) (17), Piezo1^fl/fl (Piezo1^tm2.1Apat/J. Jackson Laboratory) (29). Mice were maintained in mixed outbred backgrounds. […]
Pregnant Prox1-EGFP females at E18.5 were intraperitoneal injected with vehicle or Yoda1 (70 μg/kg). […] Equivalent anatomic locations were selected for capturing images in the vehicle and Yoda1-treated groups, and their lymphatic valve formation was investigated and quantified (Supplemental FIG. 5).
As Piezo1 was originally identified as a mechanically activated cation channel (21-25), we next asked whether another physical force, such as cell stretching, could stimulate Piezo1 and induce the molecular signature of lymphatic valves. […] Prox1-EGFP mice were perinatally administrated at E18.5 and P0 with a chemical agonist of Piezo1, Yoda1 (30), and lymphatic valve formation in the small intestine, colon, and skin was evaluated at P1. […]

cultured LECs = assay: Lymphatic valve gene expression in Yoda1-treated cultured LECs in the absence of OSS; assay type: cell-based, human
Procedure: As Piezo1 was originally identified as a mechanically activated cation channel (21-25), we next asked whether another physical force, such as cell stretching, could stimulate Piezo1 and induce the molecular signature of lymphatic valves. To address this question, primary LECs were subjected to cyclic cell stretching (112%, 12 Hz) for 4, 8, and 24 hours in the absence of OSS, and the expression of the lymphatic valve genes were investigated. […] In addition, we investigated whether chemical activation of Piezo1 promotes lymphatic valve formation in animals. Prox1-EGFP mice were perinatally administrated at E18.5 and P0 with a chemical agonist of Piezo1, Yoda1 (30), and lymphatic valve formation in the small intestine, colon, and skin was evaluated at P1. […] We then asked whether Yoda1 could activate cultured LECs to upregulate lymphatic valve genes in the absence of OSS.

T1 sequence (E2JF22 whole entry): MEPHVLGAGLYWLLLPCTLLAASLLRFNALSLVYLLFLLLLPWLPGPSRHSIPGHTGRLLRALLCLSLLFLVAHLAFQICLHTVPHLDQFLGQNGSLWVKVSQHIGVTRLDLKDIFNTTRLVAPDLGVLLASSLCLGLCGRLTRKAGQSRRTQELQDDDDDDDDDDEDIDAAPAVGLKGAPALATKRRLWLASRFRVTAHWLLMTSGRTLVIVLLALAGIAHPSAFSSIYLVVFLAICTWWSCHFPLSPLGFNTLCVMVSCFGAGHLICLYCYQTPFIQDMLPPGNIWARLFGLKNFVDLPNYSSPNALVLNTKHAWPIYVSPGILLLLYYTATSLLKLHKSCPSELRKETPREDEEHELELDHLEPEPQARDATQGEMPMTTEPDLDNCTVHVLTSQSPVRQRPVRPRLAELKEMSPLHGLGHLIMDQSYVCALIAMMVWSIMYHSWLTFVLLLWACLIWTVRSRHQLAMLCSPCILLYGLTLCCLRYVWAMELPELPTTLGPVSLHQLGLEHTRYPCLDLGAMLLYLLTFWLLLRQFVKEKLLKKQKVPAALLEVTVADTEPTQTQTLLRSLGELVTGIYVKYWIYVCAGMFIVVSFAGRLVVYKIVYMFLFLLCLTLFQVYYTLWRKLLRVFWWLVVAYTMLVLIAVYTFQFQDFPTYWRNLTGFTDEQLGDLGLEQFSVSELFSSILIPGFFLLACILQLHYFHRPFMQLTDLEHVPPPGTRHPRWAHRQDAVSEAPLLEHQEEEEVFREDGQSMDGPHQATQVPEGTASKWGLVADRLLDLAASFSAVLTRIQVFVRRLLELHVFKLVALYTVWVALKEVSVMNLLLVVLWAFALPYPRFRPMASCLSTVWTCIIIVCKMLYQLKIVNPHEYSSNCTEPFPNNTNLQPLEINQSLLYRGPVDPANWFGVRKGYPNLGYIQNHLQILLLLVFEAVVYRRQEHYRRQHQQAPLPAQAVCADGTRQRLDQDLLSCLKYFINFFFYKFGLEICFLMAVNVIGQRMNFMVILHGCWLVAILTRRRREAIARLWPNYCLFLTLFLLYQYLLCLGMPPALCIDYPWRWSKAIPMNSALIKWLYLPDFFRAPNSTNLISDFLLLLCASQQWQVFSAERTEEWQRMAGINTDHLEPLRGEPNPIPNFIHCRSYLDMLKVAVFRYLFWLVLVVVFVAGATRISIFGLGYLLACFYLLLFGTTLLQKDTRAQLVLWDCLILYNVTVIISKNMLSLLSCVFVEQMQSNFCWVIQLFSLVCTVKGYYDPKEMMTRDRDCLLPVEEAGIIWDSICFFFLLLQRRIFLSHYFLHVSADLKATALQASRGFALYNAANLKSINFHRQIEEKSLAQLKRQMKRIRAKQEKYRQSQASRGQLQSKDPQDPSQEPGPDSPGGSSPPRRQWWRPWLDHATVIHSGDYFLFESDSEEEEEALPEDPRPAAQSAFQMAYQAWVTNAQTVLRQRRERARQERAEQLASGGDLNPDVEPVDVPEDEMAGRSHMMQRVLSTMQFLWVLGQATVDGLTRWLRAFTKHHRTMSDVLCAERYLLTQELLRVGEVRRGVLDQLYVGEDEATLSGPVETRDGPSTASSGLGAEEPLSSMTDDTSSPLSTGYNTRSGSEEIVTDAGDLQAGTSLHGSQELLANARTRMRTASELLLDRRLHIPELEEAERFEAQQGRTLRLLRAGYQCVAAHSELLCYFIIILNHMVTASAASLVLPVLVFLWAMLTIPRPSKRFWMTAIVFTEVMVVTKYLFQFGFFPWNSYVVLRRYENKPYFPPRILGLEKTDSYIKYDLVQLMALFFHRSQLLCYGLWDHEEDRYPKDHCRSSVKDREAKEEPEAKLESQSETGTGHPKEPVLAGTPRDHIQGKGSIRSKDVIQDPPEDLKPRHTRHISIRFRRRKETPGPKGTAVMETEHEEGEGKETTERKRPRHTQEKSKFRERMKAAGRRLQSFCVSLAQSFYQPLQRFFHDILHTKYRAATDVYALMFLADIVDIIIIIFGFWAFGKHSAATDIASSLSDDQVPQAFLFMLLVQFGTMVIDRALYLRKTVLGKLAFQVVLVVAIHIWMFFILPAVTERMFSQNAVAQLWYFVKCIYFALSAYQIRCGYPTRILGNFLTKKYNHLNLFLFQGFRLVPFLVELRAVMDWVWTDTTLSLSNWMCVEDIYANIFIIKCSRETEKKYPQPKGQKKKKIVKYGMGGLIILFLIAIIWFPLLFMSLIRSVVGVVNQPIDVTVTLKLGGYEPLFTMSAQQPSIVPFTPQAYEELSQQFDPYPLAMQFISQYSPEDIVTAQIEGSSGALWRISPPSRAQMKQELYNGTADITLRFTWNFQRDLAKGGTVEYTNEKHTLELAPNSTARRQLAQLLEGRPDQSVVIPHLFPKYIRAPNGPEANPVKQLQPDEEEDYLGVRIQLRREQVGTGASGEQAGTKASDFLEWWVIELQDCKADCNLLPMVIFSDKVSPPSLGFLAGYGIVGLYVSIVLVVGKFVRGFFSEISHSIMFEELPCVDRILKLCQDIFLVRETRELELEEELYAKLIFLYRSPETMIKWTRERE

Clc1cccc(Cl)c1CSc1nnc(-c2cnccn2)s1 [Yoda1, 2-[(2,6-dichlorophenyl)methylsulfanyl]-5-pyrazin-2-yl-1,3,4-thiadiazole]
lymphatic valve formation (Piezo1): significantly expedited; also recorded: accelerated lymphatic valve formation | FOXC2 expression (cultured LECs): rather downregulated | CX37 expression (cultured LECs; Piezo1-dependent): upregulates | GATA2 expression (cultured LECs; Piezo1-dependent): upregulates | ITGA9 expression (cultured LECs; Piezo1-dependent): upregulates | LAMA5 expression (cultured LECs; Piezo1-dependent): upregulates
